Measured values: ChEMBL document CHEMBL3045406, “Enantioselective Relieving Activity of α-Methylbenzylphenylureas toward Bensulfuron-methyl Injury to Rice (Oryza sativa)” (Biosci Biotechnol Biochem, 1999)

What was measured:
Oryza sativa [1] = assay: Relieving activity against bensulfuron-methyl induced injury to Oryza sativa (rice) assessed as growth rate at 0.1 uM (Rbv = 46 to 53%); type: functional
Oryza sativa [2] = assay: Effect on Oryza sativa (rice) assessed as growth rate at 1 uM relative to control; type: organism-based; conditions: in vivo
Oryza sativa [3] = assay: Effect on Oryza sativa (rice) assessed as growth rate at 0.1 uM relative to control; type: organism-based; conditions: in vivo
Oryza sativa [4] = assay: Safener indices, ratio of compound effect of Oryza sativa (rice) growth rate to relieving activity against bensulfuron-methyl induced injury to Oryza sativa growth rate at 0.1 uM
Oryza sativa [5] = assay: Safener indices, ratio of compound effect of Oryza sativa (rice) growth rate to relieving activity against bensulfuron-methyl induced injury to Oryza sativa growth rate at 1 uM
[6] = Hydrophobicity, log K of the compound; type: physicochemical; conditions: octanol/water
Oryza sativa [7] = assay: Safener indices, ratio of compound effect of Oryza sativa (rice) growth rate to relieving activity against bensulfuron-methyl induced injury to Oryza sativa growth rate at 10 uM
Oryza sativa [8] = assay: Relieving activity against bensulfuron-methyl induced injury to Oryza sativa (rice) assessed as growth rate at 10 uM (Rbv = 46 to 53%); type: functional
Oryza sativa [9] = assay: Effect on Oryza sativa (rice) assessed as growth rate at 10 uM relative to control; type: organism-based; conditions: in vivo
Oryza sativa [10] = assay: Relieving activity against bensulfuron-methyl induced injury to Oryza sativa (rice) assessed as growth rate at 1 uM (Rbv = 46 to 53%); type: functional

## C[C@H](NC(=O)Nc1ccccc1)c1ccccc1
Oryza sativa [1]
  Activity: 67%
Oryza sativa [2]
  Activity: 98%
Oryza sativa [3]
  Activity: 101%
Oryza sativa [4]
  Ratio: 30
Oryza sativa [5]
  Ratio: 58
[6]
  log K: 0.28
Oryza sativa [7]
  Ratio: 63
Oryza sativa [8]
  Activity: 80%
Oryza sativa [9]
  Activity: 90%
Oryza sativa [10]
  Activity: 80%

## C[C@@H](NC(=O)Nc1ccccc1)c1ccccc1
Oryza sativa [1]
  Activity: 56%
Oryza sativa [2]
  Activity: 98%
Oryza sativa [3]
  Activity: 101%
Oryza sativa [4]
  Ratio: 7
Oryza sativa [5]
  Ratio: 36
[6]
  log K: 0.28
Oryza sativa [7]
  Ratio: 60
Oryza sativa [8]
  Activity: 77%
Oryza sativa [9]
  Activity: 79%
Oryza sativa [10]
  Activity: 69%

## Cc1ccccc1NC(=O)N[C@H](C)c1ccccc1
Oryza sativa [1]
  Activity: 52%
Oryza sativa [2]
  Activity: 100%
Oryza sativa [3]
  Activity: 100%
Oryza sativa [4]
  Ratio: 6
Oryza sativa [5]
  Ratio: 12
[6]
  log K: 0.337
Oryza sativa [7]
  Ratio: 42
Oryza sativa [8]
  Activity: 71%
Oryza sativa [9]
  Activity: 99%
Oryza sativa [10]
  Activity: 55%

## Cc1ccccc1NC(=O)N[C@@H](C)c1ccccc1
Oryza sativa [1]
  Activity: 52%
Oryza sativa [2]
  Activity: 99%
Oryza sativa [3]
  Activity: 100%
Oryza sativa [4]
  Ratio: 5
Oryza sativa [5]
  Ratio: 21
[6]
  log K: 0.337
Oryza sativa [7]
  Ratio: 58
Oryza sativa [8]
  Activity: 79%
Oryza sativa [9]
  Activity: 99%
Oryza sativa [10]
  Activity: 60%

## Cc1cccc(NC(=O)N[C@H](C)c2ccccc2)c1
Oryza sativa [1]
  Activity: 55%
Oryza sativa [2]
  Activity: 98%
Oryza sativa [3]
  Activity: 100%
Oryza sativa [4]
  Ratio: 10
Oryza sativa [5]
  Ratio: 22
[6]
  log K: 0.374
Oryza sativa [7]
  Ratio: 29
Oryza sativa [8]
  Activity: 45%
Oryza sativa [9]
  Activity: 47%
Oryza sativa [10]
  Activity: 60%

## Cc1cccc(NC(=O)N[C@@H](C)c2ccccc2)c1
Oryza sativa [1]
  Activity: 63%
Oryza sativa [2]
  Activity: 100%
Oryza sativa [3]
  Activity: 99%
Oryza sativa [4]
  Ratio: 27
Oryza sativa [5]
  Ratio: 58
[6]
  log K: 0.374
Oryza sativa [7]
  Ratio: 79
Oryza sativa [8]
  Activity: 89%
Oryza sativa [9]
  Activity: 100%
Oryza sativa [10]
  Activity: 79%

## Cc1ccc(NC(=O)N[C@H](C)c2ccccc2)cc1
Oryza sativa [1]
  Activity: 54%
Oryza sativa [2]
  Activity: 98%
Oryza sativa [3]
  Activity: 100%
Oryza sativa [4]
  Ratio: 9
Oryza sativa [5]
  Ratio: 41
[6]
  log K: 0.367
Oryza sativa [7]
  Ratio: 46
Oryza sativa [8]
  Activity: 63%
Oryza sativa [9]
  Activity: 64%
Oryza sativa [10]
  Activity: 70%

## Cc1ccc(NC(=O)N[C@@H](C)c2ccccc2)cc1
Oryza sativa [1]
  Activity: 72%
Oryza sativa [2]
  Activity: 99%
Oryza sativa [3]
  Activity: 100%
Oryza sativa [4]
  Ratio: 45
Oryza sativa [5]
  Ratio: 73
[6]
  log K: 0.367
Oryza sativa [7]
  Ratio: 82
Oryza sativa [8]
  Activity: 91%
Oryza sativa [9]
  Activity: 100%
Oryza sativa [10]
  Activity: 86%

## CCc1ccccc1NC(=O)N[C@H](C)c1ccccc1
Oryza sativa [1]
  Activity: 52%
Oryza sativa [2]
  Activity: 100%
Oryza sativa [3]
  Activity: 101%
Oryza sativa [4]
  Ratio: 1
Oryza sativa [5]
  Ratio: 8
[6]
  log K: 0.422
Oryza sativa [7]
  Ratio: 47
Oryza sativa [8]
  Activity: 72%
Oryza sativa [9]
  Activity: 92%
Oryza sativa [10]
  Activity: 55%

## CCc1ccccc1NC(=O)N[C@@H](C)c1ccccc1
Oryza sativa [1]
  Activity: 51%
Oryza sativa [2]
  Activity: 100%
Oryza sativa [3]
  Activity: 100%
Oryza sativa [4]
  Ratio: 1
Oryza sativa [5]
  Ratio: 12
[6]
  log K: 0.422
Oryza sativa [7]
  Ratio: 44
Oryza sativa [8]
  Activity: 71%
Oryza sativa [9]
  Activity: 95%
Oryza sativa [10]
  Activity: 57%

## Cc1ccc(NC(=O)NC(C)(C)c2ccccc2)cc1 [DAIMURON]
Oryza sativa [1]
  Activity: 74%
Oryza sativa [2]
  Activity: 89%
Oryza sativa [3]
  Activity: 99%
Oryza sativa [4]
  Ratio: 47
Oryza sativa [5]
  Ratio: 78
[6]
  log K: 0.487
Oryza sativa [7]
  Ratio: 66
Oryza sativa [8]
  Activity: 79%
Oryza sativa [9]
  Activity: 77%
Oryza sativa [10]
  Activity: 88%
